Assay results reported in patent US6130215A, “Piperazinylalkylthiopyrimidine derivatives, pharmaceutical compositions containing the same and a process for the preparation of the novel compounds” (Egis Gyoyszergyar RT, priority 1995, dated 2000).

What was measured:
[1] = molecular target: T1, 5-HT2C receptor (Sus scrofa, UniProt K7GSR7); assay: 5-HT2C receptor binding ([3H]mesulergine, pig brain choroid plexus membrane preparation); conditions: tritiated mesulergine, 37° C., read-out: Inhibition of receptor binding of the radioactive ligand, 5-HT2C (Ki)
T1 construct: pig brain choroid plexus membrane preparation; from tissue; host or cells: pig brain choroid plexus membrane preparation
T1 sequence (K7GSR7 1-457): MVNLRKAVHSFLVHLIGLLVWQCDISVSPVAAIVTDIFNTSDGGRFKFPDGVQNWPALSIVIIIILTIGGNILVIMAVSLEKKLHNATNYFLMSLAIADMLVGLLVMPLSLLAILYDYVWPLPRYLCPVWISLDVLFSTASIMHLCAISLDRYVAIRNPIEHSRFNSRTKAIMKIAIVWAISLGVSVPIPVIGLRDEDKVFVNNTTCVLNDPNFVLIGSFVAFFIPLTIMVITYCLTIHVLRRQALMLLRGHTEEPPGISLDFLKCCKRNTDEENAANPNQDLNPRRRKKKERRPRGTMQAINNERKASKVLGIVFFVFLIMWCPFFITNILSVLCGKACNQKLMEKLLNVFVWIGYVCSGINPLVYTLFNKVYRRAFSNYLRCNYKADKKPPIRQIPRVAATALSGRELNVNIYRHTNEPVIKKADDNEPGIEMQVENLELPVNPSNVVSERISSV
Experimental: (§1) 5-HT2A and 5-HT2C receptor binding was measured according to the methods described by Leysen et al. /Mol. Pharmacol., 21, 301 (1981)/ and Pazos et al. /Eur. J. Pharmacol., 106, 539 (1985)/, respectively. 5-HT2A receptor binding was measured in rat brain frontal cortex membrane preparation using tritiated ketanserine /3-/2-(4-fluorobenzoyl)- -1-piperidinyl/ethyl-2,4-(1H,3H)-quinazoline-dione/(60-90 Ci/mmole) as ligand. 5-HT2C receptor binding was measured in pig brain choroid plexus membrane preparation using tritiated mesulergine /N'-/(8)-1,6-dimethyl-ergoline-8-yl/-N,N-dimethylsulfamide (70-85 Ci/mmole) as the ligand. Non-specific binding to 5-HT2A and 5-HT2C receptors were determined in the presence of 10 micro M cyproheptadine/4-(5H-dibenzo/a,d/cycloheptene-5-ylidene)-1-methylpiperidine/ and 1 micro M mianserine/1,2,3,4,10,14b-hexahydro-2-methyldibenzo-/c,f/pyrazino/1,2-a/azepine/, respectively. The final incubation volumes were 250 and 1000 microlitres. Samples were incubated for 15 and 30 minutes at 37° C. Incubation was stopped by adding 9 ml of ice-cold 50 mM tris(hydroxymethyl)-aminomethane hydrochloride (pH=7.7) to the reaction mixture. The samples were rapidly filtered through Whatman GF/B glass fiber filters using reduced pressure. Before use, the filters were soaked in a 0.05% poly-ethyleneimine solution for 2 to 3 hours. Radioactivity of the filters was determined by a scintillation spectrometer.

[2] = molecular target: T2, 5-HT2A receptor (Rattus norvegicus, UniProt P14842); assay: 5-HT2A receptor binding ([3H]ketanserine, rat brain frontal cortex membrane preparation); conditions: tritiated ketanserine, 37° C., read-out: Inhibition of receptor binding of the radioactive ligand, 5-HT2A (Ki)
T2 construct: rat brain frontal cortex membrane preparation; from tissue; host or cells: rat brain frontal cortex membrane preparation
Experimental: as §1

[3] = molecular target: T3, 5-HT2A receptor (Oryctolagus cuniculus, UniProt G1SYA7); assay: 5-HT2A receptor antagonistic effect: inhibition of 5-HT-evoked contractions on isolated rabbit aortic strips; format: cell-based, rabbit (New-Zealand, male, white); conditions: 5-HT 10^-6 M; phenoxybenzamine 10^-8 M; tranylcypramine 10^-7 M; 10 minutes incubation
T3 construct: The thoracic aorta segment after the aortic arch was removed; from tissue; host or cells: rabbit thoracic aorta, helical strips
Experimental: New-Zealand, male, white rabbits weighing 2.0 to 2.5 kg were killed by a blow on the head. The thoracic aorta segment after the aortic arch was removed and placed into a Krebs' solution (NaCl 118 mM, KCl 4.6 mM, NaHCO3 25 mM, glucose 10.5 mM, […] 1 mM, KH2PO4 1 mM, CaCl2 2.6 mM). The aorta was carefully cleaned from fat and connective tissue, and was cut into 3 mm wide and 30 mm long helical strips. Four strips were obtained from each rabbit. The strips were equilibrated at 37° C. for 60 minutes in an organ chamber filled with Krebs' solution. The strips were also oxygenated by bubbling carbogen gas (5% of carbon dioxide and 95% of oxygen) through the solution. The strips were stretched by 1 g tension.
The contractions were measured by a Hugo Sachs K-30 type strain gauge, and were registered on a Multicorder type polygraph. During the last 40 minutes of the equilibration, the MAO enzym inhibitor tranylcypramine (10^-7 M) /chemical name: (±)-trans-2-phenylcyclopropylamine/ was also added to the bath.
Any alpha-adrenergic effects of the test compounds were eliminated by 10^-8 M of phenoxybenzamine /N-(2-chloroethyl)-N-(1-methyl-2-phenoxyethyl)benzylamine/ /Clancy et al., J. Pharm. Exp. Ther., 233, 761 (1985). Testing of the serotonergic antagonistic effect was started at the 90th minute of incubation. The stability and reproducibility of the contractile response of the aortic strips to serotonin was tested by two consecutive application and wash-out procedures of 10^-6 M concentration of 5-HT, 40 minutes apart. […] 30 minutes after the second testing, a preset concentration of the test compound was added to the bath, and, after a 10 minutes incubation time, the response to 10^-6 M of 5-HT was determined in the presence of the compound to be tested.
Two different concentrations of a given compound were tested on each aortic strip by the above method. Reproducibility of the control 5-HT-evoked response was checked between testing the two concentrations of the compound.
IC50 was calculated by nonlinear curve fitting of the inhibitory effect of increasing concentrations of the test compound.

T3 sequence (G1SYA7 1-469): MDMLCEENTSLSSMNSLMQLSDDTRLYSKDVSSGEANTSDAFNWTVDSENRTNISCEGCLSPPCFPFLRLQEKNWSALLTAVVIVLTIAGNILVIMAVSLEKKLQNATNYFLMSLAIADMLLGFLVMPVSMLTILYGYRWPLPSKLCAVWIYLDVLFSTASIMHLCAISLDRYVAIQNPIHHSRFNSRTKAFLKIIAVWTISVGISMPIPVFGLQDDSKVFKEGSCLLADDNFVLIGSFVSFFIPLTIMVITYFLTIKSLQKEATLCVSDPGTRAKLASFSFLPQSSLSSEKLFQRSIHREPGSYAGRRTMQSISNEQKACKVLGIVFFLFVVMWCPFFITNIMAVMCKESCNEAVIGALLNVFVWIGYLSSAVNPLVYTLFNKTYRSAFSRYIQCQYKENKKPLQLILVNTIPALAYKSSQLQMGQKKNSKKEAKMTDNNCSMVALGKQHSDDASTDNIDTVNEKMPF
T2 sequence (P14842 whole entry): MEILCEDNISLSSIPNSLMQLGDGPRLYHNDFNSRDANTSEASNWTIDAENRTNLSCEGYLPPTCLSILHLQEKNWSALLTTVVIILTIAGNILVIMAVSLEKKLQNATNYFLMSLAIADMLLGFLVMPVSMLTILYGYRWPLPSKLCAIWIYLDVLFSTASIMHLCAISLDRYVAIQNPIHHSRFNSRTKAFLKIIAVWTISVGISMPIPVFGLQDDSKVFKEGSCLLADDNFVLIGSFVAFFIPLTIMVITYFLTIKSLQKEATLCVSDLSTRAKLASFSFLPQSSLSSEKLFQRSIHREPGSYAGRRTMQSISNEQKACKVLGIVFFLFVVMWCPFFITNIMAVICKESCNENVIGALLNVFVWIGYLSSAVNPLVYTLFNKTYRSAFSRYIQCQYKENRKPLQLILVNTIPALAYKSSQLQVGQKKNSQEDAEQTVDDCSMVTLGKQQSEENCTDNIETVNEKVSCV

Row | SMILES | Ki [1] [nM] | Ki [2] [nM] | IC50 [3] [nM]
1 | COc1cc(Cc2c(N)nc(SCCN3CCN(Cc4ccccc4Cl)CC3)nc2N)cc(OC)c1OC [Example 67, 2-[2-/4-(2-Chlorobenzyl)-1-piperazinyl/-ethylthio]-4,6-diamino-5-(3,4,5-trimethoxy-benzyl)pyrimidine] | 8.6 | 4.6 | 39
2 | COc1ccc(Cc2c(N)nc(SCCN3CCN(Cc4ccc(C)cc4)CC3)nc2N)cc1 [Example 23, 2-[2-/4-(4-Methylbenzyl)-1-piperazinyl/-ethylthio]-4,6-diamino-5-(4-methoxybenzyl)-pyrimidine] | > 100 | 20 | 670
3 | COc1ccc(Cc2c(N)nc(SCCN3CCN(Cc4cccc(OC)c4)CC3)nc2N)cc1 [Example 28, 2-[2-/4-(3-Methoxybenzyl)-1-piperazinyl/-ethylthio]-4,6-diamino-5-(4-methoxybenzyl)-pyrimidine] | 50 | > 100 | 
4 | Nc1cc(N)nc(SCCN2CCN(Cc3ccccc3Cl)CC2)n1 [Example 5, 2-[2-/4-(2-Chlorobenzyl)-1-piperazinyl/-ethylthio]-4,6-diaminopyrimidine] | 67 | 16 | 250
5 | COc1cccc(CN2CCN(CCSc3nc(N)c(Cc4cc(OC)c(OC)c(OC)c4)c(N)n3)CC2)c1 [Example 65, 2-[2-/4-(3-Methoxybenzyl)-1-piperazinyl/-ethylthio]-4,6-diamino-5-(3,4,5-trimethoxy-benzyl)pyrimidine] | 42 | 34 | 170
6 | Nc1nc(SCCN2CCN(Cc3ccccc3Cl)CC2)nc(N)c1Cc1ccccc1 [Example 13, 2-[2-/4-(2-Chlorobenzyl)-1-piperazinyl/-ethylthio]-4,6-diamino-5-benzylpyrimidine] | 12 | 20 | 120
7 | Nc1nc(SCCN2CCN(Cc3ccc([N+](=O)[O-])cc3)CC2)nc(N)c1Cc1ccccc1O [Example 19, 2-[2-/4-(4-Nitrobenzyl)-1-piperazinyl/-ethylthio]-4,6-diamino-5-(2-hydroxybenzyl)-pyrimidine] | > 100 | 48 | 
8 | COc1cc(Cc2c(N)nc(SCCN3CCN(Cc4ccc([N+](=O)[O-])cc4)CC3)nc2N)cc(OC)c1OC [Example 68, 2-[2-/4-(4-Nitrobenzyl)-1-piperazinyl/-ethylthio]-4,6-diamino-5-(3,4,5-trimethoxy-benzyl)pyrimidine] | > 100 | 21 | 780
9 | Cc1ccc(CN2CCN(CCSc3nc(N)c(Cc4ccccc4Cl)c(N)n3)CC2)cc1 [Example 40, 2-[2-/4-(4-Methylbenzyl)-1-piperazinyl/-ethylthio]-4,6-diamino-5-(2-chlorobenzyl)-pyrimidine] | > 100 | 21 | 
10 | Nc1nc(SCCN2CCN(Cc3ccccc3Cl)CC2)nc(N)c1Cc1ccccc1Cl [Example 45, 2-[2-/4-(2-Chlorobenzyl)-1-piperazinyl/ethylthio]-4,6-diamino-5-(2-chlorobenzyl)-pyrimidine] | 25 | 27 | 430
11 | COc1cccc(CN2CCN(CCSc3nc(N)c(Cc4ccccc4)c(N)n3)CC2)c1 [Example 12, 2-[2-/4-(3-Methdxybenzyl)-1-piperazinyl/-ethylthio]-4,6-diamino-5-benzylpyrimidine] | 47 | > 100 | 
12 | CN(C)c1ccc(Cc2c(N)nc(SCCN3CCN(Cc4cccc(Cl)c4)CC3)nc2N)cc1 [Example 56, 2-[2-/4-(3-Chlorobenzyl)-1-piperazinyl/-ethylthio]-4,6-diamino-5-(4-dimethylamino-benzyl)pyrimidine] | 57 | 38 | 900
13 | Nc1nc(SCCN2CCN(Cc3cccc(C(F)(F)F)c3)CC2)nc(N)c1Cc1ccc(F)cc1 [Example 21, 2-[2-/4-(3-Trifluoromethylbenzyl)-1-piperazinyl/ethylthio]4,6-diamino-5-(4-fluorobenzyl)pyrimidine] | 39 | > 100 | 
14 | CN(C)c1ccc(Cc2c(N)nc(SCCN3CCN(Cc4ccccc4Cl)CC3)nc2N)cc1 [Example 101, 2-[2-/4-(2-Chlorobenzyl)-1-piperazinyl/-ethylthio]-4,6-diamino-5-(4-dimethylamino-benzyl)pyrimidine] | 24 | 16 | 
15 | COc1ccc(Cc2c(N)nc(SCCN3CCN(Cc4cccc(C(F)(F)F)c4)CC3)nc2N)cc1 [Example 35, 2-[2-/4-(3-Trifluoromethylbenzyl)-1-piperazinyl/-ethyl-thio]-4,6-diamino-5-(4-methoxybenzyl)pyrimidine] | 69 | > 100 | 
16 | CN(C)c1ccc(Cc2c(N)nc(SCCN3CCN(Cc4ccccc4C#N)CC3)nc2N)cc1 [Example 54, 2-[2-/4-(2-Cyanobenzyl)-1-piperazinyl/-ethylthio]-4,6-diamino-5-(4-dimethylamino-benzyl)pyrimidine] |  |  | 570
17 | Nc1nc(SCCN2CCN(Cc3ccccc3Cl)CC2)nc(N)c1Cc1ccc(Cl)cc1 [Example 47, 2-[2-/4-(2-Chlorobenzyl)-1-piperazinyl/ethylthio]-4,6-diamino-5-(4-chlorobenzyl)-pyrimidine] | 33 | > 100 | 
18 | COc1ccccc1Cc1c(N)nc(SCCN2CCN(Cc3ccc([N+](=O)[O-])cc3)CC2)nc1N [Example 34, 2-[2-/4-(4-Nitrobenzyl)-1-piperazinyl/-ethylthio]-4,6-diamino-5-(2-methoxy-benzyl)pyrimidine] | > 100 | 71 | 
19 | COc1ccc(CN2CCN(CCSc3nc(N)c(Cc4cc(OC)c(OC)c(OC)c4)c(N)n3)CC2)cc1 [Example 66, 2-[2-/4-(4-Methoxybenzyl)-1-piperazinyl/-ethylthio]-4,6-diamino-5-(3,4,5-trimethoxy-benzyl)pyrimidine] | > 100 | 61 | 
20 | Cc1ccccc1CN1CCN(CCSc2nc(N)c(Cc3ccccc3Cl)c(N)n2)CC1 [Example 39, 2-[2-/4-(2-Methylbenzyl)-1-piperazinyl/-ethylthio]-4,6-diamino-5-(2-chloro-benzyl)pyrimidine] | 27 |  | 300
21 | COc1ccc(Cc2c(N)nc(SCCN3CCN(Cc4ccccc4C#N)CC3)nc2N)cc1 [Example 27, 2-[2-/4-(2-Cyanobenzyl)-1-piperazinyl/-ethylthio]-4,6-diamino-5-(4-methoxybenzyl)-pyrimidine] |  |  | 900
22 | COc1ccccc1Cc1c(N)nc(SCCN2CCN(Cc3cccc(C(F)(F)F)c3)CC2)nc1N [Example 36, 2-[2-/4-(3-Trifluoromethylbenzyl)-1-piperazinyl/ethylthio]-4,6-diamino-5-(2-methoxybenzyl)pyrimidine] | 18 | > 100 | 
